Consider one compound from BindingDB's records for patent US20250082630 (AstraZeneca, 2025).

Bounds are passed on as bounds.

The target in experiment [1] is Poly [ADP-ribose] polymerase 2 (Homo sapiens, UniProt Q9UGN5). Put plainly: PARP Fluorescence Anisotropy Binding Assay.
Experimental: (§1) Recombinant full length 6HIS tagged PARP1 protein was diluted to 6 nM with 50 mM Tris pH 8, 0.001% Triton X100, 10 mM MgCl2, 150 mM NaCl and incubated for four hours with an equivalent volume of 2 nM fluorescent probe diluted with 50 mM Tris pH 8, 0.001% Triton X100, 10 mM MgCl2, 150 mM NaCl. The final DMSO concentration of the probe was kept below 1% (v/v).Recombinant full length PARP2 protein was diluted to 6 nM with 50 mM Tris pH 8, 0.001% Triton X100, 10 mM MgCl2, 150 mM NaCl and incubated for four hours with an equivalent volume of 2 nM fluorescent probe diluted with 50 mM Tris pH 8, 0.001% Triton X100, 10 mM MgCl2, 150 mM NaCl. The final DMSO concentration of the probe was kept below 1% (v/v).Recombinant full length PARP3 protein was diluted to 100 nM with 50 mM Tris pH 8, 0.001% Triton X100, 10 mM MgCl2, 150 mM NaCl and incubated for four hours with an equivalent volume of 6 nM fluorescent probe diluted with 50 mM Tris pH 8, 0.001% Triton X100, 10 mM MgCl2, 150 mM NaCl.
Experiment [2] deals with Poly [ADP-ribose] polymerase 1 (Homo sapiens, UniProt P09874). Nature of the experiment: PARP Fluorescence Anisotropy Binding Assay. A general note: In fluorescence polarisation assays a small probe gives low polarisation when free and higher when bound to something large.
Chain of Poly [ADP-ribose] polymerase 1 (P09874 whole entry): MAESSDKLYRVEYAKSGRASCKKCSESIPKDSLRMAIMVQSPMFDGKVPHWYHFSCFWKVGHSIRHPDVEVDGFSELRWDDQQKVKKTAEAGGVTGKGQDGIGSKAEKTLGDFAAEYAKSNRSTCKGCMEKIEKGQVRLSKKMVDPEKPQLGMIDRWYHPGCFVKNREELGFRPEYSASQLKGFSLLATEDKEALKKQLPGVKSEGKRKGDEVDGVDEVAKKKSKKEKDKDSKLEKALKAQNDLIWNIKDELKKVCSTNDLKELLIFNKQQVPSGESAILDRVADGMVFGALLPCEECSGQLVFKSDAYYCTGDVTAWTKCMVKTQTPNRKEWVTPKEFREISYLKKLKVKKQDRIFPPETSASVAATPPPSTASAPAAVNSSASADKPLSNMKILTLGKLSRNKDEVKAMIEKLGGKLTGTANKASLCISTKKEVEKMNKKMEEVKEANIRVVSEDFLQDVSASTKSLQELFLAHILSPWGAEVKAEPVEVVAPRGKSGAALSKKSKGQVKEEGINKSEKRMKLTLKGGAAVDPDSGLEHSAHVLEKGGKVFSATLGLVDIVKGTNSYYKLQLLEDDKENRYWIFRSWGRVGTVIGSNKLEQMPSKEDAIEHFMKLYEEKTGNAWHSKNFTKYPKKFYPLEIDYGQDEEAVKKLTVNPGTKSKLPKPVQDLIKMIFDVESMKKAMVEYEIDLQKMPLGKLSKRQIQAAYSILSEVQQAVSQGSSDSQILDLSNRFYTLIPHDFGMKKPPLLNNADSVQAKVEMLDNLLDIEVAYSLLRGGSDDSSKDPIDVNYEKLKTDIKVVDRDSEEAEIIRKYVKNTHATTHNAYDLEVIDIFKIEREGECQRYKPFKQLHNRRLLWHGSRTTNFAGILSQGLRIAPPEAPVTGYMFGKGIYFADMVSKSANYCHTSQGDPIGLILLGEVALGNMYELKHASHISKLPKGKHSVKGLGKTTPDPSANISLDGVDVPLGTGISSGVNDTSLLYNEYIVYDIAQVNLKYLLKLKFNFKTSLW
Experimental: as §1

Chain of Poly [ADP-ribose] polymerase 2 (Q9UGN5 whole entry): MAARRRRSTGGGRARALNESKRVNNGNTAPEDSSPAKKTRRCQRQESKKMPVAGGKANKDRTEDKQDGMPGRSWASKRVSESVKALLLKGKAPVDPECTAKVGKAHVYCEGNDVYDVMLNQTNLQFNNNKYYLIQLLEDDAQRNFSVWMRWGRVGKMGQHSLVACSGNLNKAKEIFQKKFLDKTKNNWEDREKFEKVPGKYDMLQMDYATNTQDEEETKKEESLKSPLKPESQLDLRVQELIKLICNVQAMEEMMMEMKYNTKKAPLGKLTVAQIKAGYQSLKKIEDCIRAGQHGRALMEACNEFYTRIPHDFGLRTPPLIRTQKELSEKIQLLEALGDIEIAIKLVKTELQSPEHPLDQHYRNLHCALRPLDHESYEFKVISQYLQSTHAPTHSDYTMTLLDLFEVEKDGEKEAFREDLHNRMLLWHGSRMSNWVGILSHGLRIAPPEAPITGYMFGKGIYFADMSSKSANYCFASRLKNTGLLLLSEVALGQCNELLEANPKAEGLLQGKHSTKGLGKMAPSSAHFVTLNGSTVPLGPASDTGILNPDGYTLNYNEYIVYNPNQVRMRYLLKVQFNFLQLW

Consider `CNC(=O)c1ccc(N2CCN(Cc3ccc4nc(OC)c(=O)[nH]c4c3C)CC2)c(F)n1` [US20250082630, Example 58], for which the IC50 (as a rule, the midpoint of a concentration-inhibition curve) in experiment [1] was over 100000 nM; in experiment [2] it was 8 nM.
